The values that follow come from publication PMC8596838, “Xylose‐Configured Cyclophellitols as Selective Inhibitors for Glucocerebrosidase” (Chembiochem, 2021).

Each structure is given as a SMILES string. Where two headings read alike, the source gives them in different places.

Common to all, as to type: biochemical
In one test the target is T1, GBA2 (Homo sapiens, UniProt Q9HCG7).
T1 construct: expressed in transfected cells; host or cells: HEK293T (GBA/GBA2 KO background for the fluorogenic assay; endogenous-GBA background with GBA2 and GBA3 overexpressed for ABPP and intact-cell assays)
T1 sequence (Q9HCG7 1-927): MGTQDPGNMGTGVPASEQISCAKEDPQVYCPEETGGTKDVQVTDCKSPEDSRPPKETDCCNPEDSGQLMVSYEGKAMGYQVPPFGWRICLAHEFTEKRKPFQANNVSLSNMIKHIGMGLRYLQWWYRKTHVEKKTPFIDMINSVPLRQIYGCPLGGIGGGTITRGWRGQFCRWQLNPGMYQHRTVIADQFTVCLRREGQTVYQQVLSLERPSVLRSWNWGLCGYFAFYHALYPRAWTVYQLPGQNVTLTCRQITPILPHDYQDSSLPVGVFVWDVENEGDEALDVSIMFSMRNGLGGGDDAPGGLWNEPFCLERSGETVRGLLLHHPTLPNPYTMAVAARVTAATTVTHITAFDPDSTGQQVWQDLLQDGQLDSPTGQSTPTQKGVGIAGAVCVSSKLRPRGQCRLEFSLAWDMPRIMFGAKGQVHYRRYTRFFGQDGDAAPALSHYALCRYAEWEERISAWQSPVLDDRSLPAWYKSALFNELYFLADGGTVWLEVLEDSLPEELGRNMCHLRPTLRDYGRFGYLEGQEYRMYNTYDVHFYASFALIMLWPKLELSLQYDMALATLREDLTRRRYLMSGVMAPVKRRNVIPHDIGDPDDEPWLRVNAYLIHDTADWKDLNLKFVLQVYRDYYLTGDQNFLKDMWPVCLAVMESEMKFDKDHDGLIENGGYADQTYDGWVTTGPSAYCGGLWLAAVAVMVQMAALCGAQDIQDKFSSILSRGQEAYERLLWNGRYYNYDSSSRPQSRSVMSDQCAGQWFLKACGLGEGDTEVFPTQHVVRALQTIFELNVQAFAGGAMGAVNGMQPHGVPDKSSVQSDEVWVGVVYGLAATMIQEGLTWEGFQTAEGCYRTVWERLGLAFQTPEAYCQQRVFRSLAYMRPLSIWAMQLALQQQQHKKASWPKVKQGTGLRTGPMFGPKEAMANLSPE
Briefly: Fluorogenic substrate enzymatic assay, lysate of GBA/GBA2 KO HEK293T cells overexpressing GBA2. The conditions noted are these: for (Ratio) GBA2/GBA / GBA2/GBA ratio, 3 h: IC50 ratio; for (Ratio) GBA2/GBA / inhibitory activity against GBA2: in vitro, 30 min; for IC50: n=3. The protocol: (§1) Enzyme activity assays: All assays were performed with lysates of HEK293T cells or zebrafish larvae in 96‐well plates at 37 °C. Samples were diluted with McIlvaine buffer (150 mM citric acid‐Na2HPO4) to a final volume of 25 μL, at pH appropriate for each enzyme. Assays were performed by incubating the samples with 100 μL 4‐methylumbelliferyl‐β‐D‐glucoside substrates diluted in McIlvaine buffer (with 0.1 % (w/v) bovine serum albumin (BSA)) for a period of 30 min or 3 h. The substrate mixtures used for each enzyme were as follows: GBA, 3.75 mM 4‐MU‐β‐D‐glucopyranoside (Glycosynth, Warrington Cheshire, UK) at pH 5.2, supplemented with 0.2 % (w/v) sodium taurocholate, 0.1 % (v/v) Triton X‐100, 0.1 % (w/v) bovine serum albumin (BSA); GBA2, 3.75 mM 4 MU‐β‐D‐glucopyranoside at pH 5.8; GBA3, 3.75 mM 4‐MU‐β‐D‐glucopyranoside at pH 6.0. After stopping the enzyme reaction with 200 μL 1 M NaOH‐glycine (pH 10.3), 4‐methylumbelliferone fluorescence was measured with a fluorimeter LS55 (Perkin Elmer, Waltham, MA, USA) with λEX 366 nm and λEM 445 nm. Enzyme activities were determined by subtraction of background (measured for incubations without enzyme). IC50 values were determined exactly as earlier described.[36]
The IC50 values were determined using a fluorogenic enzymatic assay. For GBA, 3.16 ng (53 fmol) of rhGBA, (recombinant human GBA, Imiglucerase) obtained from Sanofi Genzyme (Cambridge, MA, USA), was prepared in 12.5 μL McIlvaine buffer (150 mM, pH 5.2) supplemented with 0.1 % (v/v) Triton X‐100, and 0.2 % (w/v) sodium taurocholate, 0.1 % (w/v) bovine serum albumin (BSA). […] In the case of GBA2 or GBA3, lysates of GBA/GBA2 KO HEK293T cells overexpressing GBA2 or GBA3, respectively where used. The enzymatic activity of GBA, GBA2 and GBA3 were measured with 4MU‐β‐D‐glucoside substrate as described above.

The target in a further test is T2, GBA3 (Homo sapiens, UniProt Q9H227).
T2 construct: expressed in transfected cells; host or cells: HEK293T (GBA/GBA2 KO background for the fluorogenic assay; endogenous-GBA background with GBA2 and GBA3 overexpressed for ABPP and intact-cell assays)
T2 sequence (Q9H227 1-469): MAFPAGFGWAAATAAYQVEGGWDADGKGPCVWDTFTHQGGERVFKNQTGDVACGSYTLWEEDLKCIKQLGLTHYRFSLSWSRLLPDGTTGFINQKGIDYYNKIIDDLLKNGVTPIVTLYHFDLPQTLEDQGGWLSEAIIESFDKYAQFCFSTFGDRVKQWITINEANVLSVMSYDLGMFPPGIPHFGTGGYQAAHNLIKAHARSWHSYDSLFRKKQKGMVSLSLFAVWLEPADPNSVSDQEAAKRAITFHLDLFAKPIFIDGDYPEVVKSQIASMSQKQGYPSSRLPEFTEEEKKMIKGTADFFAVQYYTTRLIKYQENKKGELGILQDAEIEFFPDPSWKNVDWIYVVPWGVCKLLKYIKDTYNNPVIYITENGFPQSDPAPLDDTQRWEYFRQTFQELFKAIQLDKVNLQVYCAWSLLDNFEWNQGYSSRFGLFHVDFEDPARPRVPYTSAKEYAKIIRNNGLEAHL
Briefly: Fluorogenic substrate enzymatic assay, lysate of GBA/GBA2 KO HEK293T cells overexpressing GBA3. The conditions noted are these: for (Ratio) GBA3/GBA: IC50 ratio; for (Ratio) GBA3/GBA / inhibitory activity against GBA3: in vitro, 30 min; for IC50: incubation time 30 min, enzymatic assay, ±SD, n=3, read-out: In vitro apparent IC50 GBA3. The procedure: (§2) Using fluorogenic substrate‐based assays, we determined apparent IC50 values at 30 min incubation time of the xylo‐cyclophellitols in rhGBA, and GBA2 and GBA3 lysates of cells expressing only each of the enzymes specifically.
as §1
(§3) The IC50 values were determined using a fluorogenic enzymatic assay. For GBA, 3.16 ng (53 fmol) of rhGBA, (recombinant human GBA, Imiglucerase) obtained from Sanofi Genzyme (Cambridge, MA, USA), was prepared in 12.5 μL McIlvaine buffer (150 mM, pH 5.2) supplemented with 0.1 % (v/v) Triton X‐100, and 0.2 % (w/v) sodium taurocholate, 0.1 % (w/v) bovine serum albumin (BSA). The enzyme was incubated with 12.5 μL of inhibitors diluted in McIlvaine buffer (150 mM, pH 5.2) at 37 °C for 30 min. In the case of GBA2 or GBA3, lysates of GBA/GBA2 KO HEK293T cells overexpressing GBA2 or GBA3, respectively where used. The enzymatic activity of GBA, GBA2 and GBA3 were measured with 4MU‐β‐D‐glucoside substrate as described above.

For test [1], the target named is T3, rhGBA (recombinant human GBA, Imiglucerase) (Homo sapiens, UniProt P04062, R534H).
T3 construct: purchased Sanofi Genzyme (Cambridge, MA, USA)
T3 sequence (P04062 40-536 R534H): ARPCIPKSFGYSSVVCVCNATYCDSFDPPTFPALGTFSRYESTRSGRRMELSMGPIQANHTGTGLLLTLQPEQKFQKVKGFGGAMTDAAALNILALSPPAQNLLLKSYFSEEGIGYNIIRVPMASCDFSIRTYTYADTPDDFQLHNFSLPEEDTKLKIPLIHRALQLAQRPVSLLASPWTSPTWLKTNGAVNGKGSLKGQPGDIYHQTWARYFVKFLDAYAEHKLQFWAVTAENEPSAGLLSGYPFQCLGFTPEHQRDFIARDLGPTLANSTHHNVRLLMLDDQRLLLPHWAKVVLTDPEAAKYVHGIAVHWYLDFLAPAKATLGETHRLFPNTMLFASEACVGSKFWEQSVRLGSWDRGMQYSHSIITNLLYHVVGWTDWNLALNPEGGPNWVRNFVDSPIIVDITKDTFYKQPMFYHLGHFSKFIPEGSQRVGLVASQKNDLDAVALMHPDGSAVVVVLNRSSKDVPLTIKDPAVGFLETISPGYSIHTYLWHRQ
Briefly: Fluorogenic substrate (4-MU-β-D-glucoside) enzymatic assay, rhGBA. The note with it: for inhibitory activity against GBA: in vitro, 30 min. The procedure: as §2, §1, §3

Test [2] addresses T3, rhGBA (recombinant human GBA, Imiglucerase). The test is described as above.
Setting [3] is: incubation time 30 min, enzymatic assay, ±SD, read-out: In vitro apparent IC50 GBA2.
The mark [4] stands for this setting: incubation time 30 min, enzymatic assay, ±SD, n=3, read-out: In vitro apparent IC50 rhGBA.
[5] abbreviates: enzymatic assay performed for 3 h, read-out: In vitro apparent IC50 GBA2, 3 h.

On to `O=C(CCCCC1SCC2NC(=O)NC21)NCc1cn(CCCCCCCCN2C3CC(O)C(O)C(O)C32)nn1` (centres unmarked) [ABP 7], for which, at GBA2, the “(Ratio) GBA2/GBA” value is given as 295. Moreover, the IC50 at GBA2 (setting [3]) worked out at 48300 ± 9010 nM; on GBA3, 25300 ± 5010 nM; in test [1] (setting [4]), 164 ± 22.1 nM. At GBA3, the “(Ratio) GBA3/GBA” value worked out at 155.
`CC1=CC(C)=[N+]2C1=C(CCCCc1cn(CCCCCCCCN3[C@H]4[C@H](O)[C@@H](O)[C@H](O)C[C@H]43)nn1)c1c(C)cc(C)n1[B-]2(F)F` (some centres unmarked) [ABP 8]: on GBA2, the “(Ratio) GBA2/GBA” value was 23. The IC50 at GBA2 (setting [3]) amounted to 61.2 ± 12 nM; on GBA3, 522 ± 209 nM; in test [1] (setting [4]), 2.7 ± 0.45 nM. Besides, the “(Ratio) GBA3/GBA” value at GBA3 stood at 193.
Take `CN1/C(=C/C=C/C=C/C2=[N+](CCCCCC(=O)NCc3cn(CCCCCCCCN4[C@@H]5[C@H](CO)[C@@H](O)[C@H](O)[C@@H](O)[C@@H]54)nn3)c3ccccc3C2(C)C)C(C)(C)c2ccccc21` (some centres unmarked) [ABP 10, reference compound]: at GBA2, the “(Ratio) GBA2/GBA” value stood at 2.6. Besides, the IC50 came out at 21.5 ± 0.42 nM on GBA2 (setting [3]), 8.54 ± 1.18 nM on GBA3 and 8.1 ± 1.94 nM in test [1] (setting [4]). The “(Ratio) GBA3/GBA” value on GBA3 was found to be 1.
As for `O[C@@H]1[C@@H](O)[C@H](O)C[C@@H]2O[C@H]12` [compound 11, α‐D‐xylose‐configured cyclophellitol], the “inhibitory activity against GBA2” value on GBA2 is on record as “no or little inhibitory activity”. The “inhibitory activity against GBA3” value at GBA3 is given as “no or little inhibitory activity”. Further, the “inhibitory activity against GBA” value in test [1] is given as “no or little inhibitory activity”.
Take `O[C@@H]1[C@@H](O)[C@H](O)C[C@@H]2N[C@H]12` [compound 12]: the “inhibitory activity against GBA2” value against GBA2 was “no or little inhibitory activity”. The IC50 on GBA2 (setting [3]) is 55800 ± 2340 nM. For the same compound, the “inhibitory activity against GBA3” value against GBA3 is listed as “no or little inhibitory activity”. In test [1], the “inhibitory activity against GBA” value is “no or little inhibitory activity”.
As for `O[C@H]1[C@H](O)[C@@H](O)[C@@H]2O[C@@H]2[C@@H]1O` [compound 13, Conduritol B‐epoxide, reference compound], the “GBA2/GBA ratio, 3 h” value at GBA2 (in vitro 3 h) is listed as 40. Also, the “(Ratio) GBA2/GBA” value on GBA2 is on record as above 14. In addition, the IC50 on GBA2 (setting [5]) was 105000 ± 5850 nM; at GBA2 (setting [3]), above 500000 nM; in test [2] (enzymatic assay performed for 3 h, n=3, read-out: In vitro apparent IC50 rhGBA, 3 h) it was 2630 ± 340 nM; at GBA3, above 500000 nM; in test [1] (setting [4]) it was 34900 ± 1670 nM. Further, the “(Ratio) GBA3/GBA” value on GBA3 was above 14.
With `O[C@H]1[C@H](O)[C@@H](O)[C@@H]2N[C@@H]2[C@@H]1O` [compound 14, conduritol B‐aziridine, reference compound], at GBA2 (in vitro 3 h), the “GBA2/GBA ratio, 3 h” value was 6.6 and the “increase in inhibitory activity towards GBA2 of aziridines relative to epoxide analogues” value is listed as 10–20 fold. The IC50 on GBA2 (setting [5]) was found to be 10800 ± 3300 nM. For the same compound, in test [2] (in vitro 3 h), the “increase in inhibitory activity towards GBA of aziridines relative to epoxide analogues” value is “less than two‐fold increase”. Moreover, the IC50 in test [1] amounted to 1630 ± 70 nM.
